According to article PMC4911001, “Synthesis and Biological Evaluation of Novel Phosphatidylcholine Analogues Containing Monoterpene Acids as Potent Antiproliferative Agents” (PLoS ONE, 2016):

Experiments:
[1] = system: drug resistant LOVO/DX line versus drug sensitive LoVo line; experiment: Resistance index (RI), LoVo/DX versus LoVo; assay type: cell-based, human; settings: RI = IC50 LoVo/DX / IC50 LoVo; 0<RI<2 able to overcome drug resistance; 2<RI<10 moderate ability; RI>10 no influence
Description: Using the obtained IC50 values, the resistance indexes (RI) were calculated by dividing the IC50 values of the compounds tested against the cells of drug resistant cell LOVO/DX line by respective values obtained against the cells of drug sensitive LoVo line. According to Harker et al. three categories of the cells could be distinguished: (a) the cells are drug-sensitive—if the ratio approaches 0–2; (b) the cells are moderately drug-resistant—if the ratio ranges from 2 to 10; (c) the cells are markedly drug-resistant—if the ratio is higher than 10.
We calculated also the resistance indexes (RI) by dividing the IC50 values of the compounds tested against the cells of drug resistant cell LoVo/DX by respective values obtained against the drug sensitive LoVo cell line (Table 2). […] Compounds 7a, 7b and 10b have the highest ability to overcome the barrier of resistance (RI = 1.08, 1.06 and 1.09).

tested cancer cell lines = experiment: Antiproliferative activity compared with free terpene acids, cancer cell line panel; assay type: cell-based, human; settings: for antiproliferative activity, fold higher than free acids: compared with free terpene acids; for IC50 values, fold lower than those of free terpene acids 1a, 1b: towards leukaemia, LoVo, LOVO/DX and breast cell lines
Description: (§1) 24 hours before addition of the tested compounds, the cells were plated in 96-well plates at density of 1×10^4 cells per well. An assay was performed after 72 hours exposure to varying concentrations of the tested agents.
(§2) Cytotoxic test MTT was applied for the cytotoxicity screening against leukaemia cells growing in suspension culture and were carried out according to the method described before. Cytotoxic test SRB was applied against A549, MCF-7, LoVo, LoVo/DX, BALB/3T3 and HepG2 cells and were carried out according to the method described before.
(§3) The results were calculated as an IC50 (inhibitory concentration 50)–the concentration of tested agent, which inhibits proliferation of 50% of the cell population. Each compound in each concentration was tested in triplicate in a single experiment, which was repeated 3–5 times.
The aim of this study was to determine whether a joining the terpenes with PC has impact on their biological activity. Increasing the lipophilicity of active compounds was expected to raise their cytotoxicity. We observed that almost all synthesized compounds were cytotoxic against tested cancer cell lines. […] Upon careful evaluation of data it can be concluded that cytotoxic activity of terpene-modified PCs is depended on the position of terpene moiety in the backbone of PC. […] These compounds stronger than corresponding acids inhibit the proliferation of cancer cells. […] Their IC50 values were more than 9-fold lower than those determined for free terpene acids 1a, 1b towards leukaemia, LoVo, LOVO/DX and breast cell lines. […] Generally, activity of terpene-modified PC increased in the following sequence: 1-isoprenoyl-LPC < diisoprenoyl-PC < monoisoprenoyl-PC.

[2] = system: LoVo/DX (colon cancer drug resistant); experiment: Antiproliferative assay in vitro, SRB test, LoVo/DX; assay type: cell-based, human; settings: 72 hours exposure, doxorubicin-resistant line, mean ± SD of 3–5 independent experiments, n.a. = no activity in concentration of 5, 25, 125, 625 μM
Description: (§4) Established in vitro, human cancer cell lines: MV4-11 (human biphenotypic B myelomonocytic leukaemia), A-549 (non-small cell lung cancer), MCF-7 (breast cancer), LoVo (colon cancer), LoVo/DX (colon cancer drug resistant), HepG2 (liver cancer) and BALB/3T3 (normal mice fibroblasts) were used.
(§5) The leukaemia cell line was cultured in RPMI 1640 medium (IIET, Wroclaw, Poland) with supplemented with 2 mM L-glutamine adjusted to contain 1.0 mM sodium pyruvate, 10% fetal bovine serum (all from Sigma-Aldrich Chemie GmbH, Steinheim, Germany). A549, LoVo and LoVo/DX cells were cultured in the mixture of RPMI 1640+Opti-MEM (1:1) (both from Gibco, Scotland, UK), MCF-7 cells in Eagle medium (IIET, Wroclaw, Poland), HepG2 in DMEM medium (Gibco, Scotland, UK), BALB/3T3 in DMEM medium (IIET, Wroclaw, Poland) supplemented with 2 mM L-glutamine and 1.0 mM sodium pyruvate, 10% fetal bovine serum (all from Sigma-Aldrich, Germany). The MCF-7 cell culture was supplemented with 0.8 mg/L of insulin (Sigma-Aldrich Chemie GmbH, Steinheim, Germany) and the LoVo/DX cell culture was supplemented with 0.1 μg/mL of doxorubicin (Accord). All culture media were supplemented with 100 units/mL penicillin, and 100 μg/mL streptomycin (both from Polfa Tarchomin S.A., Warsaw, Poland). All cell lines were grown at 37°C with 5% CO2 humidified atmosphere.
(§6) Prior to usage, the compounds were dissolved in DMSO or in mixture of 99.8% ethanol and DMSO (1:1) to the concentration of 25 or 50 mM, and subsequently diluted in culture medium to reach the required concentrations (ranging from 5 to 625 μM).
as §1, §2, §3

HepG2 (liver cancer) = experiment: Antiproliferative assay in vitro, SRB test, HepG2; assay type: cell-based, human; settings: mean ± SD of 3–5 independent experiments, n.a. = no activity in concentration of 5, 25, 125, 625 μM
Description: as §4, §5, §6, §1, §2, §3

[3] = system: A-549 (non-small cell lung cancer); experiment: Antiproliferative assay in vitro, SRB test, A-549; assay type: cell-based, human; settings: mean ± SD of 3–5 independent experiments, n.a. = no activity in concentration of 5, 25, 125, 625 μM
Description: as §4, §5, §6, §1, §2, §3

MCF-7 (breast cancer) = experiment: Antiproliferative assay in vitro, SRB test, MCF-7; assay type: cell-based, human; settings: mean ± SD of 3–5 independent experiments, n.a. = no activity in concentration of 5, 25, 125, 625 μM
Description: as §4, §5, §6, §1, §2, §3

[4] = system: BALB/3T3 (normal mice fibroblasts); experiment: Antiproliferative assay in vitro, SRB test, BALB/3T3; assay type: cell-based; settings: mean ± SD of 3–5 independent experiments, n.a. = no activity in concentration of 5, 25, 125, 625 μM
Description: as §4, §5, §6, §1, §2, §3

[5] = system: MV4-11 (human biphenotypic B myelomonocytic leukaemia); experiment: Antiproliferative assay in vitro, MTT test, MV4-11; assay type: cell-based; settings: mean ± SD of 3–5 independent experiments, n.a. = no activity in concentration of 5, 25, 125, 625 μM
Description: as §4, §5, §6, §1, §2, §3

LoVo (colon cancer) = experiment: Antiproliferative assay in vitro, SRB test, LoVo; assay type: cell-based, human; settings: 72 hours exposure, mean ± SD of 3–5 independent experiments, n.a. = no activity in concentration of 5, 25, 125, 625 μM
Description: as §4, §5, §6, §1, §2, §3

[6] = Homo sapiens, HepG2, 72 hours exposure
[7] = Homo sapiens, A549, 72 hours exposure
[8] = Homo sapiens, MCF7, 72 hours exposure
[9] = Mus musculus, BALB/3T3, 72 hours exposure
[10] = Homo sapiens, MV4-11, 72 hours exposure

Row | SMILES | Resistance index (RI) [1] | antiproliferative activity, fold higher than free acids (tested cancer cell lines) | IC50 ([2]; Homo sapiens, LoVo/DX) | IC50 (HepG2 (liver cancer); [6]) | IC50 [3, 7] | IC50 (MCF-7 (breast cancer); [8]) | IC50 [4, 9] | IC50 [5, 10] | IC50 (LoVo (colon cancer); Homo sapiens, LoVo) | IC50 values, fold lower than those of free terpene acids 1a, 1b (tested cancer cell lines) | IC50 ±SD, HepG2 (HepG2 (liver cancer); 72 hours exposure) | IC50 ±SD, A-549 ([3]; 72 hours exposure) | IC50 [2] | IC50 (HepG2 (liver cancer); 72 hours exposure) | IC50 ([3]; 72 hours exposure) | IC50 (MCF-7 (breast cancer); 72 hours exposure) | IC50 ([4]; 72 hours exposure) | IC50 ([5]; 72 hours exposure) | IC50 (LoVo (colon cancer))
1 | CC(C)=CCCC(C)=CC(=O)OC[C@H](COP(=O)([O-])OCC[N+](C)(C)C)OC(=O)C=C(C)CCC=C(C)C (mixture of isomers) [Compound 3a] | 1.12 | 2-3 fold | 279 ± 10.8 µM | 285 ± 5 µM | 274 ± 9.42 µM | 236 ± 21.3 µM | 273 ± 6.76 µM | 96.7 ± 33.9 µM | 248 ± 9.3 µM | – | – | – | – | – | – | – | – | – | –
2 | CCCCCCCCCCCCCCCC(=O)OC[C@H](COP(=O)([O-])OCC[N+](C)(C)C)OC(=O)C=C(C)CCC=C(C)C (mixture of isomers) [Compound 7a, 1'-palmitoyl-2'-(E)-geranoyl-sn-glycero-3'-phosphocholine + 1'-palmitoyl-2'-(Z)-geranoyl-sn-glycero-3'-phosphocholine] | 1.08 | – | 55 ± 2.12 µM | 200 ± 6.1 µM | 72.1 ± 14.4 µM | 105 ± 6.51 µM | 186 ± 15.2 µM | 60.9 ± 10.9 µM | 51.1 ± 5.1 µM | more than 9 fold | – | – | – | – | – | – | – | – | –
3 | CC(C)=CCCC(C)=CC(=O)OC[C@@H](O)COP(=O)([O-])OCC[N+](C)(C)C (mixture of isomers) [Compound 9a] | – | – | 526 ± 89.6 µM | – | – | 523 ± 97.2 µM | – | 324 ± 116 µM | 246 ± 9.9 µM | – | not active | not active | – | – | – | – | – | – | –
4 | CCCCCCCCCCCCCCCC(=O)O[C@H](COC(=O)C=C(C)CCC=C(C)C)COP(=O)([O-])OCC[N+](C)(C)C (mixture of isomers) [Compound 10a] | 1.5 | – | 51.9 ± 6.7 µM | 70.3 ± 8.6 µM | 49.5 ± 1.88 µM | 52.5 ± 5.9 µM | 65.8 ± 3.34 µM | 38.2 ± 9.3 µM | 34.6 ± 1.6 µM | more than 9 fold | – | – | – | – | – | – | – | – | –
5 | N.N.[Cl][Pt][Cl] [Cisplatin, reference compound] | – | – | – | – | – | – | – | – | – | – | – | – | 3.17 ± 0.2 µM | 2.38 ± 0.64 µM | 8.6 ± 0.7 µM | 8.1 ± 0.03 µM | 4.2 ± 1.1 µM | 1.3 ± 0.47 µM | 2.56 ± 0.35 µM
6 | CC(C)=CCCC(C)=CC(=O)O [Compound 1a, Geranic acid, reference compound] | 1.87 | – | 492 ± 44.5 µM | – | – | 447 ± 72 µM | – | 311 ± 96.4 µM | 263 ± 32 µM | – | did not showed any reduction of cells growth | did not showed any reduction of cells growth | – | – | – | – | – | – | –
7 | CC(C)=CCCC(C)CC(=O)O (stereo not drawn) [Compound 1b, citronellic acid, reference compound] | – | – | 533 ± 36.7 µM | – | – | 453 ± 96 µM | – | 254 ± 68 µM | 249 ± 26.4 µM | – | did not showed any reduction of cells growth | did not showed any reduction of cells growth | – | – | – | – | – | – | –
8 | CC(C)=CCCC(C)CC(=O)OC[C@H](COP(=O)([O-])OCC[N+](C)(C)C)OC(=O)CC(C)CCC=C(C)C (stereo partly drawn) [Compound 3b] | 1.3 | 2-3 fold | 251 ± 23.4 µM | 280.7 ± 1.8 µM | 203 ± 47.7 µM | 243 ± 45.1 µM | 284 ± 6.3 µM | 130 ± 37.8 µM | 194 ± 22 µM | – | – | – | – | – | – | – | – | – | –
9 | CCCCCCCCCCCCCCCC(=O)OC[C@H](COP(=O)([O-])OCC[N+](C)(C)C)OC(=O)CC(C)CCC=C(C)C (stereo partly drawn) [Compound 7b] | 1.06 | – | 57.1 ± 2.5 µM | 103 ± 11.1 µM | 61.2 ± 6 µM | 155 ± 88.3 µM | 112 ± 29.3 µM | 45.7 ± 7.63 µM | 53.9 ± 2.97 µM | more than 9 fold | – | – | – | – | – | – | – | – | –
10 | CC(C)=CCCC(C)CC(=O)OC[C@@H](O)COP(=O)([O-])OCC[N+](C)(C)C (stereo partly drawn) [Compound 9b] | 1.93 | – | 552 ± 18.5 µM | – | – | – | – | 382 ± 24.5 µM | 287 ± 35.1 µM | – | – | – | – | – | – | – | – | – | –
11 | CCCCCCCCCCCCCCCC(=O)O[C@H](COC(=O)CC(C)CCC=C(C)C)COP(=O)([O-])OCC[N+](C)(C)C (stereo partly drawn) [Compound 10b] | 1.09 | – | 57 ± 1.8 µM | 233 ± 14.7 µM | 60.2 ± 6.4 µM | 209 ± 25.7 µM | 92.9 ± 15.3 µM | 57.1 ± 6.37 µM | 52.4 ± 3.6 µM | more than 9 fold | – | – | – | – | – | – | – | – | –
12 | COc1cccc2c1C(=O)c1c(O)c3c(c(O)c1C2=O)C[C@@](O)(C(=O)CO)C[C@@H]3O[C@H]1C[C@H](N)[C@H](O)[C@H](C)O1 [Doxorubicin, reference compound] | 55.81 | – | 6.53 ± 0.93 µM | – | – | – | – | – | 0.117 ± 0.012 µM | – | – | – | – | – | – | – | – | – | –
